Laboratory results as given in patent US20080287662A1, “Balanites Aegyptiaca Saponins and Uses Thereof” (priority 2005, published 2008).

How the values were obtained:
[1] = Penetration rate of 14C-labeled 2,4-D across isolated leaf cuticle membranes with saponin adjuvant; set-up: species or system Citrus grandis; details: 1% (w/v) adjuvant, 30° C. and 30% RH
[2] = Vitamin C delivery through isolated rat skin; type: in vitro ADME; details: 25° C., 60% relative humidity
Protocol: The effect of Balanites mesocarp saponin preparation on delivery of vitamin C through the skin was tested using isolated rat skin system. 100 μl of saponin nanovesicles containing encapsulated vitamin C (2 mg) were prepared from saponin extracted from Balanites mesocarp by the procedure A described in Example 5(i) above. 15 μl of the preparation were loaded on an isolated rat skin in three replicates. The treatments were applied in a controlled environment (25° C. and 60% relative humidity) and incubated for 30 or 60 min. The solution delivered through the isolated skin was tested using an HPLC system for detecting the level of vitamin C corresponding to a standard peak of vitamin C.

[3] = system: mung bean seeds and seedlings; test: Mung bean germination, growth and development under saline water irrigation; type: in vivo; set-up: key to Germination (4 days): ++++ more advanced seedling; typical germination using tap water +++ (1 cm height with two leave starting to be expended); ++ less advanced seedling; + not germinated seedling; key to Foliage (14 days): aaaa more elongated seedlings; Typical mung bean foliage development 14 days after germination using tap water aaa (~10 cm seedling with fully expanded two leave and abscised cotyledons); aa less elongated seedlings; a dwarf seedling; key to Root: bbbb more elongated and branched roots; Typical mung bean root system 14 days after germination using tap water bbb (~6 cm well branched roots); bb less elongated roots; b short and necrotic root system; details: for Root: 14 days after germination
Protocol: Addition of Balanites mesocarp extract (ME) saponins in moderate concentration of […] to the irrigation saline water stimulated the germination and development of mung bean seeds in comparison to control. It also stimulated the germination of the seeds in comparison to control and to saline treatments. The effect on the foliage and the roots of the treated mung bean seedlings corresponded to the effect on the germination. These effects are directly related to the effect of Balanites mesocarp saponin treatment on water uptake by the mung bean seeds and germinated seedlings.

[4] = system: Aedes aegypti mosquito larvae; test: Effect of purified main mesocarp saponin on Aedes aegypti larvae, pupa and adults; type: in vivo
Protocol: Eggs of laboratory-grown Aedes aegypti were hatched in tap water in a growth chamber with a 16-hour photoperiod, at a temperature of 25±3° C. Twenty to twenty five larvae at the late 3rd and early 4th instars were placed into 150-ml disposable plastic cups containing 100 ml of tap water together with water-soluble saponin solutions of various concentrations. During the experiments, treated and control (0 mg/L saponin) cups were examined after 2, 4, 9 and 11 days and number of alive larvae or adults were counted. The data are presented in percentage together with an analysis of variance using the Tukey-Kramer HSD test (SAS's JMP software) at the 0.01 level of significance.

Escherichia coli = test: Bacterial growth in LB (OD660); type: cell-based
Protocol: Standard Luria Broth solution (LB) was prepared using […] yeast extract, 10 mg NaCl and 10 mg Typtone per ml of DDW. A small portion of the Escherichia coil inoculum (LMC1492 strain, obtained from the Life Sciences Department of the Ben-Gurion University) was added to the LB solution in a sterilized Erlenmeyer and inoculated in a rotary water bath incubator at 250 rpm and 37° C. The tested extracts were first prepared in 5% in LB solution and used as stock solution for further dilution. Lower concentrations were obtained by mixing this stock solution in the required ratios with plain LB solution. The extract containing solution of the required concentrations were prepared in 10/140 mm glass test tubes in volumes of 1.8 ml each and incubated in a rotary water bath incubator (Gyvotory-676, New Brunswick Scientific Co. Inc, NY) at 250 rpm and 37° C.

Pythium aphanidermatum = test: Mycelial colony growth inhibition in vitro; type: cell-based
Protocol: Cultures of Pythium aphanindermatum were isolated from plant species showing Pythium symptoms. The isolate was placed in potato dextrose agar (PDA, Difco, Detroit, Mich., USA) supplemented with 100 ppm of streptomycin and incubated in the dark at 27° C. for 2 days. The colony of Pythium was identified visually and microscopically and sub-cultured on PDA without antibiotics as described by Tsror et al (2001).
For fungal growth inhibition measurements five concentrations of Balanites mesocarp saponin (ME) preparation (0.1, 0.5, 1.0, 2.0 and 4.0% w/v) and two concentrations of Metalaxyl-10 (a systemic benzenoid fungicide, 1 and 5 ppm as positive control) were added in separate Erlenmeyer flasks containing sterilized (121° C., 2 atm, 20 min) PDA, and mixed properly. Samples of PDA containing Balanites mesocarp saponin preparation and Metalaxyl-10 (15 ml) were poured into sterilized petri dishes separately and allowed to solidify. 5 mm in diameter agar plug of the fungal isolate was placed in the center of each plate. The plates were incubated at 27° C. (10 plates per treatment). The colony diameter of the mycelial growth was measured after 24 and 48 h and the inhibitory activity of each treatment was expressed as the growth inhibition percentage as compared to the negative control (0% ME preparation) using the formula: Growth inhibition percentage=[100-(Treatment growth/Control growth*100)].

Triton X-100
Factor increase (times) of penetration rate vs DDW [1]: 18.6 times
Penetration rate of 2,4-D (^14C) [1]: 11.00 × 10^−5 a h^−1
Factor increase (times) of penetration rate vs DDW ([1]; listed as Triton): 19.1 times
Penetration rate of 2,4-D (^14C) ([1]; listed as Triton): 0.00011 h⁻¹

O=C1O[C@H]([C@@H](O)CO)C(O)=C1O [Vitamin C, ascorbic acid]
Vitamin C level in skin ([2]; 30 minutes incubation): 259 ± 109 ng/cm^2 skin surface area
Vitamin C level in skin ([2]; 60 minutes incubation): 326 ± 131 ng/cm^2 skin surface area

[Cl-].[Na+] [NaCl]
Foliage (14 days) ([3]; 75 mM): aa
Germination (4 days) ([3]; 75 mM): ++
Root ([3]; 75 mM): bbb
Foliage (14 days) ([3]; 150 mM): a
Germination (4 days) ([3]; 150 mM): +
Root ([3]; 150 mM): bb

CC(CCC1(O)O[C@H]2C[C@H]3[C@@H]4CC=C5C[C@@H](O[C@@H]6O[C@H](CO)[C@@H](O[C@@H]7O[C@H](CO)[C@@H](O)[C@H](O)[C@H]7O)[C@H](O)[C@H]6O[C@@H]6O[C@@H](C)[C@H](O)[C@@H](O)[C@H]6O)CC[C@]5(C)[C@H]4CC[C@]3(C)[C@H]2[C@@H]1C)CO[C@@H]1O[C@H](CO)[C@@H](O)[C@H](O)[C@H]1O (stereo partly drawn) [26-(O-β-D-glucopyranosyl)-3β,22,26-trihydroxyfurost-5-ene 3-O-β-D-glucopyranosyl-(1→4)-[α-L-rhamnopyranosyl-(1→2)]-β-D-glucopyranoside]
% adults ([4]; 10 ppm, day 0): 0%
% dead larvae ([4]; 10 ppm, day 0): 0%
% pupa ([4]; 10 ppm, day 0): 0%
% adults ([4]; 10 ppm, day 2): 0%
% dead larvae ([4]; 10 ppm, day 2): 0 d %
% pupa ([4]; 10 ppm, day 2): 0%
% adults ([4]; 10 ppm, day 4): 0%
% dead larvae ([4]; 10 ppm, day 4): 0 d %
% pupa ([4]; 10 ppm, day 4): 41 ab %
% adults ([4]; 10 ppm, day 9): 41 bc %
% dead larvae ([4]; 10 ppm, day 9): 0 d %
% pupa ([4]; 10 ppm, day 9): 0 b %
% adults ([4]; 10 ppm, day 11): 87 a %
% dead larvae ([4]; 10 ppm, day 11): 1.25 d %
% pupa ([4]; 10 ppm, day 11): 0%
% adults ([4]; 100 ppm, day 0): 0%
% dead larvae ([4]; 100 ppm, day 0): 0%
% pupa ([4]; 100 ppm, day 0): 0%
% adults ([4]; 100 ppm, day 2): 0%
% dead larvae ([4]; 100 ppm, day 2): 0 d %
% pupa ([4]; 100 ppm, day 2): 0%
% adults ([4]; 100 ppm, day 4): 0%
% dead larvae ([4]; 100 ppm, day 4): 0 d %
% pupa ([4]; 100 ppm, day 4): 45 a %
% adults ([4]; 100 ppm, day 9): 70 a %
% dead larvae ([4]; 100 ppm, day 9): 6.25 d %
% pupa ([4]; 100 ppm, day 9): 0 b %
% adults ([4]; 100 ppm, day 11): 85 a %
% dead larvae ([4]; 100 ppm, day 11): 6.25 cd %
% pupa ([4]; 100 ppm, day 11): 0%
% adults ([4]; 300 ppm, day 0): 0%
% dead larvae ([4]; 300 ppm, day 0): 0%
% pupa ([4]; 300 ppm, day 0): 0%
% adults ([4]; 300 ppm, day 2): 0%
% dead larvae ([4]; 300 ppm, day 2): 50 c %
% pupa ([4]; 300 ppm, day 2): 0%
% adults ([4]; 300 ppm, day 4): 0%
% dead larvae ([4]; 300 ppm, day 4): 50 c %
% pupa ([4]; 300 ppm, day 4): 15 bc %
% adults ([4]; 300 ppm, day 9): 15 d %
% dead larvae ([4]; 300 ppm, day 9): 50 c %
% pupa ([4]; 300 ppm, day 9): 33.25 a %
% adults ([4]; 300 ppm, day 11): 50 b %
% dead larvae ([4]; 300 ppm, day 11): 48.75 bc %
% pupa ([4]; 300 ppm, day 11): 0%
% adults ([4]; 500 ppm, day 0): 0%
% dead larvae ([4]; 500 ppm, day 0): 0%
% pupa ([4]; 500 ppm, day 0): 0%
% adults ([4]; 500 ppm, day 2): 0%
% dead larvae ([4]; 500 ppm, day 2): 77.5 b %
% pupa ([4]; 500 ppm, day 2): 0%
% adults ([4]; 500 ppm, day 4): 0%
% dead larvae ([4]; 500 ppm, day 4): 78.75 b %
% pupa ([4]; 500 ppm, day 4): 9.5 c %
% adults ([4]; 500 ppm, day 9): 20 cd %
% dead larvae ([4]; 500 ppm, day 9): 78.25 b %
% pupa ([4]; 500 ppm, day 9): 1.75 b %
% adults ([4]; 500 ppm, day 11): 22.5 c %
% dead larvae ([4]; 500 ppm, day 11): 78.25 ab %
% pupa ([4]; 500 ppm, day 11): 0%
% adults ([4]; 800 ppm, day 0): 0%
% dead larvae ([4]; 800 ppm, day 0): 0%
% pupa ([4]; 800 ppm, day 0): 0%
% adults ([4]; 800 ppm, day 2): 0%
% dead larvae ([4]; 800 ppm, day 2): 95 a %
% pupa ([4]; 800 ppm, day 2): 0%
% adults ([4]; 800 ppm, day 4): 0%
% dead larvae ([4]; 800 ppm, day 4): 95 a %
% pupa ([4]; 800 ppm, day 4): 1.75 c %
% adults ([4]; 800 ppm, day 9): 0 d %
% dead larvae ([4]; 800 ppm, day 9): 93.75 a %
% pupa ([4]; 800 ppm, day 9): 0 b %
% adults ([4]; 800 ppm, day 11): 5 c %
% dead larvae ([4]; 800 ppm, day 11): 94.25 a %
% pupa ([4]; 800 ppm, day 11): 0%
% adults ([4]; 1000 ppm, day 0): 0%
% dead larvae ([4]; 1000 ppm, day 0): 0%
% pupa ([4]; 1000 ppm, day 0): 0%
% adults ([4]; 1000 ppm, day 2): 0%
% dead larvae ([4]; 1000 ppm, day 2): 90 a %
% pupa ([4]; 1000 ppm, day 2): 0%
% adults ([4]; 1000 ppm, day 4): 0%
% dead larvae ([4]; 1000 ppm, day 4): 94 a %
% pupa ([4]; 1000 ppm, day 4): 3.75 c %
% adults ([4]; 1000 ppm, day 9): 3.75 d %
% dead larvae ([4]; 1000 ppm, day 9): 93.75 a %
% pupa ([4]; 1000 ppm, day 9): 0 b %
% adults ([4]; 1000 ppm, day 11): 3.75 c %
% dead larvae ([4]; 1000 ppm, day 11): 96.25 a %
% pupa ([4]; 1000 ppm, day 11): 0%
growth inhibition (Escherichia coli; 1.0% (w/v)): 33.3%
concentration up to which bacterial growth was increased (Escherichia coli; series 0.01-1.0% w/v): 0.5 % (w/v)
% Growth inhibition (Pythium aphanidermatum; 0.1% w/v, 24 h): 4.29 ± 1.50 d %
% Growth inhibition (Pythium aphanidermatum; 0.1% w/v, 48 h): 1.00 ± 0.01 e %
% Growth inhibition (Pythium aphanidermatum; 0.5% w/v, 24 h): 13.96 ± 3.21 d %
% Growth inhibition (Pythium aphanidermatum; 0.5% w/v, 48 h): 5.35 ± 1.32 e %
% Growth inhibition (Pythium aphanidermatum; 1.0% w/v, 24 h): 66.39 ± 3.52 c %
% Growth inhibition (Pythium aphanidermatum; 1.0% w/v, 48 h): 26.01 ± 2.95 c %
% Growth inhibition (Pythium aphanidermatum; 2.0% w/v, 24 h): 81.96 ± 1.30 b %
% Growth inhibition (Pythium aphanidermatum; 2.0% w/v, 48 h): 70.87 ± 2.57 b %
% Growth inhibition (Pythium aphanidermatum; 4.0% w/v, 24 h): 82.47 ± 1.30 b %
% Growth inhibition (Pythium aphanidermatum; 4.0% w/v, 48 h): 80.01 ± 0.42 b %
